Measured values from patent US9452986B2, “6-heteroaryloxy- or 6-aryloxy-quinoline-2-carboxamides and method of use” (AbbVie Inc., priority 2014, dated 2016).

The compounds below were run against recombinant human Nav1.7 (Homo sapiens (Human), UniProt Q15858) (assay: FRET-based membrane potential assay, recombinant human sodium channel Nav1.7). Settings: HEK293 cells stably expressing recombinant human Nav1.7; veratridine + scorpion venom depolarization; read-out: FRET-Membrane Potential Nav1.7 IC50.
recombinant human Nav1.7, sequence (Q15858 whole entry): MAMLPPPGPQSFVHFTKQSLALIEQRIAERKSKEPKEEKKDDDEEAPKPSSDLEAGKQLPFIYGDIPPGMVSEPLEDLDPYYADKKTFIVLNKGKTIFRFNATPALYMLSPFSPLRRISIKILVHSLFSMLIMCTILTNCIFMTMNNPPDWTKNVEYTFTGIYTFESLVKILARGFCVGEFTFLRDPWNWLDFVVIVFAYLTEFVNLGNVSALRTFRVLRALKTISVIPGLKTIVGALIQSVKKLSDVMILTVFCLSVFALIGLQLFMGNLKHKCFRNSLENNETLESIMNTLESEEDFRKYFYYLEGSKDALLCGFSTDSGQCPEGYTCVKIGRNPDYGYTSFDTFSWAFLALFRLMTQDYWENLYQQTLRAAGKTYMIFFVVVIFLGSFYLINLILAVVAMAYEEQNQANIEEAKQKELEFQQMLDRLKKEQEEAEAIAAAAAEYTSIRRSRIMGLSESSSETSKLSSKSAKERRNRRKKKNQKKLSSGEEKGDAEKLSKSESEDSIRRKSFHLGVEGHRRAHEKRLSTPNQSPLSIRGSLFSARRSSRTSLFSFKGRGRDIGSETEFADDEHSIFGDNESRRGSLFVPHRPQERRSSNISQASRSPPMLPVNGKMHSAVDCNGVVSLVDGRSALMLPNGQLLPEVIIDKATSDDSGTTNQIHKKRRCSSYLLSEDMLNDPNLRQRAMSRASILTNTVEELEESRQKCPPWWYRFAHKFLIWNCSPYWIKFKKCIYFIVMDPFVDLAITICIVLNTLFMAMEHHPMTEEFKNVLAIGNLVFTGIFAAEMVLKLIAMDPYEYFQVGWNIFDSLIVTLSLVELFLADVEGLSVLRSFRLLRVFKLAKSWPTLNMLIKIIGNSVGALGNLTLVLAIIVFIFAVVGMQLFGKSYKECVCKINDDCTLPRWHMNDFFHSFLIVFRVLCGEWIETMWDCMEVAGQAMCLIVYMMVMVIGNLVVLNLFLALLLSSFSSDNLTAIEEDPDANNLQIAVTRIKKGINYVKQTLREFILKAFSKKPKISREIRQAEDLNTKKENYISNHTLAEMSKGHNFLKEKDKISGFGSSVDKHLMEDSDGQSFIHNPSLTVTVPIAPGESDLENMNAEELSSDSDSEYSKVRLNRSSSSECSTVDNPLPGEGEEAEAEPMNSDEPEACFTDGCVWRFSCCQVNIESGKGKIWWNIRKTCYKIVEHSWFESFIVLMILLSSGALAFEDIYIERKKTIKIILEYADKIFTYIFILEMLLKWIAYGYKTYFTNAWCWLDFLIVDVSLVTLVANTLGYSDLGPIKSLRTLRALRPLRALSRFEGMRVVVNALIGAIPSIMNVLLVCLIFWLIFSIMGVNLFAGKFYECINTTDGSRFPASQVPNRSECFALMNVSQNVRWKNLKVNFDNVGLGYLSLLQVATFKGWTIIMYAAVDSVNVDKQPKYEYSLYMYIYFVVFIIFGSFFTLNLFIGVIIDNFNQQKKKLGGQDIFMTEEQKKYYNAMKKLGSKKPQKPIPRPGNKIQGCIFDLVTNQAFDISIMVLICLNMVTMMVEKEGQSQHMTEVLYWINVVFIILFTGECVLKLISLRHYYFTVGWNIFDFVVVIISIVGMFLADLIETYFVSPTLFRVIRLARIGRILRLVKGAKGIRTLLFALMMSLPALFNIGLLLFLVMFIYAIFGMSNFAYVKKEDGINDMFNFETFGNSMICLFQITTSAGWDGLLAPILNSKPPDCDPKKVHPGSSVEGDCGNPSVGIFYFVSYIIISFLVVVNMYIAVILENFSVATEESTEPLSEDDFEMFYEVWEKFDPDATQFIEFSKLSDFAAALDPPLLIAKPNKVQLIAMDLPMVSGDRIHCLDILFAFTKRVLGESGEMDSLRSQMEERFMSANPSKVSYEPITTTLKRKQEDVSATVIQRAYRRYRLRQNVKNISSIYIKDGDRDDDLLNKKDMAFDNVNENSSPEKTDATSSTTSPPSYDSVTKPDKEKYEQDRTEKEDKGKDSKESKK
Assay type: cell-based
Outline: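 Channel activation used veratridine at its EC80, set by a dilution curve each experiment, together with Leiurus scorpion venom, added 3 min after compound. Membrane-potential ratio signals from FLIPR Tetra in HEPES-buffered HBSS were fitted to a four-parameter Hill equation for percent inhibition and IC50.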
For `O=C(c1ccc2cc(Oc3ccc(C(F)(F)F)cn3)ccc2n1)N1CC2CNCCN2C1=O` (centres unmarked) [Example 189, 2-[(6-{[5-(trifluoromethyl)pyridin-2-yl]oxy}quinolin-2-yl)carbonyl]hexahydroimidazo[1,5-a]pyrazin-3(2H)-one], the IC50 was 15.1 µM.
In the case of `Cc1ccccc1NC(=O)CCNC(=O)c1ccc2cc(Oc3ccc(C(F)(F)F)cn3)ccc2n1` [Example 500, N-{3-[(2-methylphenyl)amino]-3-oxopropyl}-6-{[5-(trifluoromethyl)pyridin-2-yl]oxy}quinoline-2-carboxamide], the IC50 is reported as 0.293 µM.
`O=C(c1ccc2cc(Oc3ccc(C(F)(F)F)cn3)ccc2n1)N1C[C@@H]2C[C@H](CO)[C@H]1C2` [Example 258, [(1R,4R,6S)-6-(hydroxymethyl)-2-azabicyclo[2.2.1]hept-2-yl](6-{[5-(trifluoromethyl)pyridin-2-yl]oxy}quinolin-2-yl)methanone] showed an IC50 of 6.13 µM.
Work on `O=C(c1ccc2cc(Oc3ccc(C(F)(F)F)cn3)ccc2n1)N1CCCNC1` [Example 233, tetrahydropyrimidin-1(2H)-yl(6-{[5-(trifluoromethyl)pyridin-2-yl]oxy}quinolin-2-yl)methanone] yielded an IC50 of 0.586 µM.
`O=C(NC1CCC(F)(F)CC1)c1ccc2cc(Oc3ccc(C(F)(F)F)nc3)ccc2n1` [Example 511, N-(4,4-difluorocyclohexyl)-6-{[6-(trifluoromethyl)pyridin-3-yl]oxy}quinoline-2-carboxamide] gave an IC50 of 1.98 µM.
`O=C(NCCC(=O)N1CCOCC1)c1ccc2cc(Oc3ccc(C(F)(F)F)nc3)ccc2n1` [Example 515, N-[3-(morpholin-4-yl)-3-oxopropyl]-6-{[6-(trifluoromethyl)pyridin-3-yl]oxy}quinoline-2-carboxamide] was tested, and the IC50 was 4.25 µM.
`O=C(c1ccc2cc(Oc3ccc(C(F)(F)F)cn3)ccc2n1)N1CCN(c2cccnc2)CC1` [Example 269, [4-(pyridin-3-yl)piperazin-1-yl](6-{[5-(trifluoromethyl)pyridin-2-yl]oxy}quinolin-2-yl)methanone] gave an IC50 of 3.07 µM.
Compound `CN1CCN(C(=O)c2ccc3cc(Oc4ccc(C#N)cc4)ccc3n2)CC1` [Example 81, 4-({2[(4-methylpiperazin-1-yl)carbonyl]quinolin-6-yl}oxy)benzonitrile] has an IC50 of 1.87 µM.
`O=C(c1ccc2cc(Oc3ccc(C(F)(F)F)cn3)ccc2n1)N1CCCCC1` [Example 297, piperidin-1-yl(6-{[5-(trifluoromethyl)pyridin-2-yl]oxy}quinolin-2-yl)methanone] gave an IC50 of 7.99 µM.
In the case of `O=C(c1ccc2cc(Oc3ccc(C(F)(F)F)cn3)ccc2n1)N1CCN(S(=O)(=O)N2CCOCC2)CC1` [Example 185, [4-(morpholin-4-ylsulfonyl)piperazin-1-yl](6-{[5-(trifluoromethyl)pyridin-2-yl]oxy}quinolin-2-yl)methanone], the IC50 is reported as greater than 20 µM.
Compound `Cc1nc(CN2CCN(C(=O)c3ccc4cc(Oc5ccc(C(F)(F)F)cn5)ccc4n3)CC2)co1` [Example 531, {4-[(2-methyl-1,3-oxazol-4-yl)methyl]piperazin-1-yl}(6-{[5-(trifluoromethyl)pyridin-2-yl]oxy}quinolin-2-yl)methanone] has an IC50 of 3.57 µM.

Same assay, conditions: read-out: FRET-Membrane Potential Nav1.7 IC50
Compound `CC1(CO)CN(C(=O)c2ccc3cc(Oc4ccc(C(F)(F)F)cn4)ccc3n2)C1` [Example 207, [3-(hydroxymethyl)-3-methylazetidin-1-yl](6-{[5-(trifluoromethyl)pyridin-2-yl]oxy}quinolin-2-yl)methanone] has an IC50 of 3.65 µM.
For `CC(C)(CO)NC(=O)c1ccc2cc(Oc3ccc(C#N)cc3)ccc2n1` [Example 124, 6-(4-cyanophenoxy)-N-(1-hydroxy-2-methylpropan-2-yl)quinoline-2-carboxamide], the IC50 was 2.14 µM.
Compound `O=C(N[C@@H]1CC[C@H]2CN(Cc3ccccc3)C[C@H]21)c1ccc2cc(Oc3ccc(C(F)(F)F)cn3)ccc2n1` [Example 230, N-[(3aS,4R,6aR)-2-benzyloctahydrocyclopenta[c]pyrrol-4-yl]-6-{[5-(trifluoromethyl)pyridin-2-yl]oxy}quinoline-2-carboxamide] has an IC50 of 0.259 µM.
